Like-named read-outs stand apart in the source and are kept apart here.
Experiments:
PKCε = biological target: T1, PKCε (Homo sapiens, UniProt Q02156); experiment: Protein kinase C assay, purified/recombinant PKC epsilon (32P incorporation into histones); type: biochemical; settings: for activation of purified PKCε / concentration needed to activate PKC, times lower than for BR-101 (DCP-LA): FIG. 3
T1 construct: purchased Calbiochem
T1 sequence (Q02156 1-737): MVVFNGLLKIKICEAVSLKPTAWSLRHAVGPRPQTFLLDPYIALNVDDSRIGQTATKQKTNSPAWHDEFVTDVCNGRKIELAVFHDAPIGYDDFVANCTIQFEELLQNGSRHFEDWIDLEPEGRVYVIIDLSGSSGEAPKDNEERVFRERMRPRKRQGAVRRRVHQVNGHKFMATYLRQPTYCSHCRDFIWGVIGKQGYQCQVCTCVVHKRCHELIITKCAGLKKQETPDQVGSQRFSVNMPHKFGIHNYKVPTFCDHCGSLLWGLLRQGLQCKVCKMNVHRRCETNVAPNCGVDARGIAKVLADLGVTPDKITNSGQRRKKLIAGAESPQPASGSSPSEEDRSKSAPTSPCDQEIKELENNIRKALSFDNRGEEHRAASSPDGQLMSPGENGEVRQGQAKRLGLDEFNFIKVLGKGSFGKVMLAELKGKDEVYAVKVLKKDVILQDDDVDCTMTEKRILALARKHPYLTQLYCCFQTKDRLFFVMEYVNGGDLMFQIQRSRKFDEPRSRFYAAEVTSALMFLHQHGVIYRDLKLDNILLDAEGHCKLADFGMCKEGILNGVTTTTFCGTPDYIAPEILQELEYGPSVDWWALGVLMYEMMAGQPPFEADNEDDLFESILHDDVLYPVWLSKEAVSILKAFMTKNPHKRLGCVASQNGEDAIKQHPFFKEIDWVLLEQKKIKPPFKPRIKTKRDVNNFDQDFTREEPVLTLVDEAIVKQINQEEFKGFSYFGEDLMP
Protocol: Protein kinase C assay. Recombinant PKC (1 ng of alpha or epsilon isofonn) was mixed with the BR-101 (UCP-LA) in the presence of 10 micromoiar histones, 5 mM CaCl2, 1.2 μg/μl phosphatidyl-L-serine, 0.18 μg/μl 1,2-dioctanoyl-sn-glycerol (DAG), […], […] (pH 7.4), 0.8 tnIVI EDTA, 4 mM EGTA, 4% glycerol, 8 μg/ml aprotinin, 8 μ/ml leupeptin, and 2 mM benzamidine. 0.5 micro Ci [^y32P]ATP was added. The incubation mixture was incubated for 15 min at 37 degrees in a total volume of 10 microliters. The reaction was stopped by spotting the reaction mixtures on 1×2 cm strips of cellulose phosphate paper (Whatman P81) and immediately washing twice for 1 hr in 0.5% H3PO4. The cellulose phosphate strips were counted in a scintillation counter. In some experiments, phosphatidylserine, diacylglycerol, and/or calcium were removed.
(§1) Protein kinase C assay. Rat hippocampal cells were cultured and scraped in 0.2 ml homogenization buffer (20 triM Tris-HCl, pH 7.4, 50 mM NaF, 1 μg/ml leupeptin, and 0.1 mM PMSF) and homogenized by sonication in a Marsonix micro-probe sonicator (5 see, 10W). To measure PKC, 10 ul of cell homogenate or purified. PKC isozyme (purchased from Calbiochem) was incubated for 15 min at 37° C. in the presence of 10 μM histones, 4.89 mM CaCl2, 1.2 μg/μl phosphatidyl-L-serine, 0.18 μg/μl 1,2-dioctanoyl-sn-glycerol, 10 mM MgCl2, 20 mM HEPES (pH 7.4), 0.8 mM EDTA, 4 mM EGTA, 4% glycerol, 8 μg/ml aprotinin, 8 μg/ml leupeptin, and 2 mM benzamidine. 0.5 μCi [^γ-32P]ATP was added and ^32P-phosphoprotein formation was measured by adsorption onto phosphocellulose as described previously. Nelson and Alkon, J. Neurochemistry. 1995; 65: 2350-57. For measurements of activation by BR-101 (DCP-LA) and similar compounds, PKC activity was measured in the absence of diacylglycerol and phosphatidyl serine, as described by Kanno et al., and PKC δ, ε, η, and μ were measured in the absence of added EGTA and CaCl2, as described by Kanno et al., J. Lipid Res. 2006; 47: 1146-50. Low concentrations of Ca^2+ are used because high Ca^2+ interacts with the PKC phosphatidylserine binding site and prevents activation. For measurements of bryostatin activation, 1,2-diacylglycerol was omitted unless otherwise stated.
To determine their PKC isozyme specificity, the new compounds were preincubated with purified PKC for five minutes and the PKC activity was measured radiometrically.

PKC [1] = settings: read-out: affinity for PKC, ECS50; cited from earlier work
PKC [2] = experiment: PKC activity time course in rat H19-7/IGF-IR hippocampal cells; type: cell-based
Protocol: (§2) Cell culture. Rat hippocampal H19-71GF-IR cells (ATCC, Manassas, Va.) were plated onto poly-L-lysine coated plates and grown at 35° C. in DMEM/10% FCS for several days until about 50% coverage was obtained. The cells were then induced to differentiate into a neuronal phenotype by replacing the medium with 5 ml N2 medium containing 10 ng/ml basic fibroblast growth factor at 39° C. and grown in T-75 flasks at 37° C. Human SH-SY5Y neuroblastoma cells (ATCC) were cultured in 45% F12K/45% MEM/10% FCS. Mouse N2A neuroblastoma cells were cultured in DMEM/10% FCS without glutamine. Rat hippocampal neurons from 18-day-old embryonic
as §1

a-secretase = settings: human fibroblasts, cited from earlier work
TACE [3] = experiment: TACE assay in rat primary neurons; type: cell-based; settings: primary neurons from rat hippocampus; FIGS. 9b, c
Protocol: (§3) TACE Assay. TACE was measured by incubating 5 μl cell homogenate, 3 μl buffer (50 mM Tris-HCl 7.4 plus 25 mM NaCl plus 4% glycerol), and 1 of 100 μM TACE substrate IV (Aβz-LAQAVRSSSR-DPa) (Calbiochem) for 20 min at 37° in 1.5-ml polypropylene centrifuge tubes (Jin et al., Anal Biochem. 2002; 302: 269-75). The reaction was stopped by cooling to 4° C. The samples were diluted to 1 ml and the fluorescence was rapidly measured (ex=320 nm, em=420 nm) in a Spex Fluorolog 2 spectrofluorometer.

TACE [4] = experiment: TACE assay in N2a mouse neuroblastoma cells; type: cell-based; settings: FIG. 9a
Protocol: as §3

Aβ = Aβ levels in N2a neuroblastoma cells transfected with human APPSwe/PSID (Aβ1-42 ELISA); type: cell-based, mouse; settings: 24 h incubation, various concentrations
Protocol: as §2
(§4) AB Measurement and Cell Viability Assay. Aβ was measured using an Aβ1-42 human fluorimetric ELISA kit (Invitrogen) according to the manufacturer's instructions. Results were measured in a Biotek Synergy HT microplate reader. AlamarBlue and CyQuant NF (Invitrogen) according to the manufacturer's instructions.
To measure the effects of PKCε activation on Aβ production, we used mouse neuro2a (N2a) neuroblastoma cells transfected with human APPSwe/PSID, which produce large quantities of Aβ. Petanceska et al., J Neurochem. 1996; 74: 1878-84. […] With bryostatin, which activates PKC by binding to the diacylglycerol-binding site, the inhibition was biphasic, with concentrations of 20 nM or higher producing no net effect. This may be explained by the ability of this class of PKC activators to downregulate PKC when used at high concentrations.

[5] = test system: SH-SY5Y neuroblastoma cells; experiment: Cell survival and proliferation (alamar Blue, CyQuant) in SH-SY5Y neuroblastoma cells; type: cell-based, human; settings: alamar Blue; FIG. 11a
Protocol: as §4

rats = settings: cited from earlier work
[6] = test system: Endothelin-converting enzyme (ECE); experiment: ECE assay in SH-SY5Y neuroblastoma cells; type: cell-based, human; settings: bryostatin 0.27 nM, BR-101 1 μM, BR-111 1 μM; FIG. 10
Protocol: ECE assay. SH-S757 neuroblastoma cells were incubated with bryostatin (0.27 nM), BR-101 (PCP-LA) (1 μM), and BR-111 (DHA-CP6) (1 μM). Endothelin-converting enzyme (ECE) was measured fluorimetrically using the method of Johnson and Ahn, Anal. Biochem. 2000; 286: 112-118. A sample of cell homogenate (20 μl) was incubated in 50 mM MES-KOH, pH 6.0, 0.01% C12E10 (polyoxyethylene-10-tauryl ether), and 15 μM McaBK2. (7-Methoxycournarin-4-acetyl [Ala7-(2,4-Dinitrophenyl)Lys9]-bradykinin trifluoroacetate salt) (Sigma-Aldrich). After 60 min at 37° C., the reaction was quenched by adding trifluoroacetic acid to 0.5%. The sample was diluted to 1.4 ml with water and the fluorescence was measured at ex=334 nm, em=398 nm.

CCC1CC1CC1CC1CC1CC1CCCCCCCCO (stereo not drawn) [BR-104, linolenic alcohol tricyclopropane]
effect on PKC (PKCε; FIG. 4): little or no effect

CCCCC[C@H]1O[C@H]1CC1CC1CCCCCCCC(=O)OC (stereo partly drawn) [BR-109, vernolic acid methyl ester cyclopropane]
effect on PKCε (PKCε; at concentrations above 1 μM, FIG. 4): inhibited

CCC1CC1CC1CC1CC1CC1CC1CC1CC1CC1CCCC(=O)OC (stereo not drawn) [BR-114]
activation of purified PKCε (PKCε): activated purified PKCε to a similar extent | concentration needed to activate PKC, times lower than for BR-101 (DCP-LA) (PKCε): approx. 100 times

CCCCCC1CC1CC1CC1CCCCCCCCO (stereo not drawn) [BR-105, linoleic alcohol dicyclopropane]
effect on PKC (PKCε; FIG. 4): little or no effect

CCCCCCCCCCCCCC(=O)O[C@@H]1[C@@H](C)[C@@]2(O)[C@@H](C=C(CO)C[C@]3(O)C(=O)C(C)=C[C@@H]23)[C@@H]2C(C)(C)[C@]12OC(C)=O [phorbol 12-myristate 13-acetate]
EC50 (PKC [1]): […] | PKC activity (downregulation) at 8 h (PKC [2]; data not shown): strongly downregulated

CCC/C=C/C=C/C(=O)O[C@H]1/C(=C/C(=O)OC)C[C@H]2C[C@H]([C@@H](C)O)OC(=O)C[C@H](O)C[C@@H]3C[C@H](OC(C)=O)C(C)(C)[C@](O)(C[C@@H]4C/C(=C/C(=O)OC)C[C@H](/C=C/C(C)(C)[C@]1(O)O2)O4)O3 [bryostatin]
increase in initial rate of a-secretase activity (a-secretase; 10 pM): 16 fold | increase in initial rate of a-secretase activity (a-secretase; 100 pM): 132 fold | TACE activity (TACE [3]): small increases | TACE activity (TACE [4]): small increases | levels of intracellular Aβ (Aβ; FIG. 7a): markedly reduced | levels of secreted Aβ (Aβ; FIG. 7b): markedly reduced | effect on cell survival [5]: no effect | rate of learning (rats): dramatically increase the rate of learning | ECE activity [6]: sustained increase | downregulation of PKC following activation (PKC [2]; 0.04 nM and 0.2 nM): 20% | time by which PKC downregulation returned to baseline (PKC [2]; 0.04 nM and 0.2 nM): ≤ 24 h | activation of PKC (PKC [2]; 0.04 nM and 0.2 nM, data not shown): 2 fold | PKC activity (downregulation) at 8 h (PKC [2]; data not shown): at or near the baseline

CCCCCC1CC1CC1CC1CC1CC1CC1CC1CCCC(=O)OC (stereo not drawn) [BR-115]
activation of purified PKCε (PKCε): activated purified PKCε to a similar extent | concentration needed to activate PKC, times lower than for BR-101 (DCP-LA) (PKCε): approx. 100 times

epoxystearic acid [BR-116]
effect on PKC (PKCε; FIG. 4): little or no effect

CCCCCC1OC1C/C=C\CCCCCCCC(=O)OC (stereo in doubt) [BR-117, vernolic acid methyl ester]
effect on PKC (PKCε; FIG. 4): little or no effect
